Laboratory results reported in patent US12447159B2 (AELIS FARMA, priority 2018, dated 2025).
Marks after values point to notes of the source that are not given here.

Assays:
[1] = system: diet-induced obese (DIO) mouse model; assay: Repeated treatment: food intake and body weight in diet-induced obese (DIO) mice; format: in vivo; conditions: vs vehicle; Rimo 10 mg/kg ip; 3pMBP 0.005-15 mg/kg per os
[2] = system: anxiety- and depression-related behaviors in mice; assay: Repeated administration: anxiety- and depression-related behaviors (elevated plus maze, sucrose preference test); format: in vivo; conditions: for Increase in anxiety and depression related behaviors (repeated administration): Effect (Rimonabant): 28 days, 10 mg/kg
Method: The EPM apparatus was made of four elevated arms arranged in a cross-like disposition, with two opposite arms being enclosed by walls and the two other arms being open. For all the experiments, after receiving the appropriate treatment mice were placed in the center of the EPM and let free to explore the maze for 5 minutes. The time spent and the number of entries into the open arms and closed arms were measured by an automatic videotracking system. A decrease in the percentages of visits and/or of the time spent in open arms is considered an index of increase in anxiety levels.
The sucrose preference test was performed in the home cage of the mice. Two identical bottles, one containing water and the other one containing a 2%-sucrose solution were placed in the hopper of each home cage. […] The volumes of water and of sucrose solutions drank by the mice were measured over two 1.30 h intervals, the first between 7.00 pm and 8.30 pm and the second between 8.30 pm and 10.00 pm. At each time point, the bottles were weighed and the intake volume was calculated by subtracting the initial bottle weight to the final bottle weight.
At day 26, mice were subjected to the EPM and at day 28 to the sucrose preference test.

[3] = at doses quite close to the therapeutic dose; cited from earlier work
corticosterone = conditions: from Steiner et al., 2008, cited from earlier work
[4] = system: diet-induced obese (DIO) mouse model; assay: Repeated treatment: food intake and body weight in diet-induced obese (DIO) mice; format: in vivo; conditions: for Inhibition of food-intake and body weight (repeated administration): Effect (Rimonabant): 10 mg/kg
Method: Male C57BL/6J mice were fed ad libitum with a high-fat diet (HFD) for 8 weeks before the start of the pharmacological treatments. During pharmacological treatments, the HFD was maintained and food intake and body weight were measured daily. The food consumed was calculated by subtracting the food left in the hoppers from the initial pre-weighted amount. […] 3pMBP and rimonabant were administered by oral gavage once a day, two hours before the start of the dark phase of the light/dark cycle.

THC dependent mice = assay: Precipitated withdrawal in mice chronically treated with THC; format: in vivo; conditions: mouse, in vivo
Method: The chronic THC regimen (20 mg/kg, twice a day) used in these experiments has been chosen because it mimics heavy marijuana use (Cook et al., 1998) and is considered as a model of cannabinoids dependence in mice (Cutando et al., 2013; Hutcheson et al., 1998). […] From day 1 to 4-5, mice were injected ip with vehicle or THC (20 mg/kg in NaCl 0.9% containing 2% ethanol and 2% Tween80, 10 ml/kg) twice a day. […] All the other animals received the administration of the respective vehicle. […] The dose and schedule of administration of rimonabant chosen for this study has been commonly used to precipitate THC withdrawal in mice (Cook et al. 1998, Hutcheson et al., 1998, Huang et al., 2009).
For the measure of precipitated withdrawal, mice were placed in a novel home cage and a video camera positioned in front of each cage recorded animals' behaviors. Scoring was performed for 1 minute every 5 min-period. Two withdrawal signs were analyzed: paw tremors and head shaking, since they are the most common signs of THC withdrawal observed in mice (Cook et al. 1998, Hutcheson et al., 1998, Lichtman et al., 2001).

[5] = Metabolic profiling of [3H]-3pMBP in plasma and excreta in the rat (Radio-HPLC); conditions: in vivo
Method: The metabolic profile was evaluated in plasma, in urines and feces and the radio-labelled metabolites were identified by their retention time using Radio-HPLC analysis. The results are expressed as % of the sum of all the detected peak areas.

[6] = system: central benzodiazepine receptor; assay: Binding selectivity, ligand displacement; conditions: 10 μM
Description: (§1) The CEREP High-throughput profile consists of a broad collection of 80 transmembrane and soluble receptors, ion channels and G-Protein coupled receptors.

[7] = biological target: T1, peripheral benzodiazepine receptor (Rattus norvegicus, UniProt P16257); assay: Binding selectivity, ligand displacement; conditions: 10 μM
T1 construct: CEREP
Description: as §1

progesterone receptor = biological target: T2, progesterone receptor (Homo sapiens, UniProt P06401); assay: Binding selectivity, ligand displacement; conditions: 10 μM
T2 construct: CEREP
T2 sequence (P06401 whole entry): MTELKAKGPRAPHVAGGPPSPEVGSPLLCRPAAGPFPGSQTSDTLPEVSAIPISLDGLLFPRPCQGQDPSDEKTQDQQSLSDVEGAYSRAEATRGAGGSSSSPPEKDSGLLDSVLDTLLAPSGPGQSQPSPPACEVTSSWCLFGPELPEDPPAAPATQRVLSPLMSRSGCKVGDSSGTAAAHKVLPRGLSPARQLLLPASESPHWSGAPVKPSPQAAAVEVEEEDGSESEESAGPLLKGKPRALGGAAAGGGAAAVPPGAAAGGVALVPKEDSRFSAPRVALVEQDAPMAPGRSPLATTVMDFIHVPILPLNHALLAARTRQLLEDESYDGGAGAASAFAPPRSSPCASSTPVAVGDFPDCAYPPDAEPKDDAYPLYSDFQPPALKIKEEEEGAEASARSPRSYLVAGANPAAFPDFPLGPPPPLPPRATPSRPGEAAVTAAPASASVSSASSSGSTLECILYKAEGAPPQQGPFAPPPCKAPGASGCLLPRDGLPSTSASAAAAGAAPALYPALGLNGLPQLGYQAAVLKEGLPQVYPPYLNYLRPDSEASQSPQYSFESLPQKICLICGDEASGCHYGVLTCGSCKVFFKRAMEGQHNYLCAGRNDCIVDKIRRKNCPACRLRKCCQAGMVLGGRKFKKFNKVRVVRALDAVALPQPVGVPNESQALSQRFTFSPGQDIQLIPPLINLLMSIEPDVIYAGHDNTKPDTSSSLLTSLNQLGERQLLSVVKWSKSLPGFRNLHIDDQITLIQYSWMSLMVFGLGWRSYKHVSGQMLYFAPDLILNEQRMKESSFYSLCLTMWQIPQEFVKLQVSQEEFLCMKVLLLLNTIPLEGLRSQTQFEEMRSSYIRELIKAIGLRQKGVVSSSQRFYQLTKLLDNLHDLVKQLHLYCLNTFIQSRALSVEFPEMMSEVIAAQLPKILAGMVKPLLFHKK
Description: as §1

[8] = 28 days once a day, 3pMBP 0.05, 5, 15 mg/kg per os, Rimo 10 mg/kg ip
[9] = male mice, listed as rimonabant
[10] = vs reference ID100 for rimonabant effects = 10 mg/kg

For Cc1c(C(=O)NN2CCCCC2)nn(-c2ccc(Cl)cc2Cl)c1-c1ccc(Cl)cc1 [Rimonabant, rimonabant], which “Body weight in obese mice” value [1] is on record?
Its value is “decreases body weight”.

And the “Percentage of time spent in the open arms of the elevated plus maze” value [2, 8]?
Its value is “decreases the time spent in open arms”.

And the “Percentage of visits in the open arms of the elevated plus maze” value [2, 8]?
Its value is “decreases the percentage of visits in open arms”.

What about the “Sucrose intake (sucrose preference test)” value [2, 8] of the same compound?
The value was “decreases sucrose intake”.

What about the IC100 ([2]; Rimonabant, male mice) of the same compound?
Its IC100 is 10 mg/kg.

What about the “Increase in anxiety and depression related behaviors (repeated administration): Effect (Rimonabant)” value ([2]; male mice) of the same compound?
The value was “Yes”.

What about the “Increase in anxiety and depression related behaviors (repeated administration): Effect (Rimonabant)” value [2, 9] of the same compound?
The value was “increased anxiety and depression-related behavior”.

And the “N fold IC100” value [2, 10]?
The value was 1.

And the “Adverse events in GLP safety and toxicity studies” value [3]?
The value was “clonic convulsion, hepatotoxicity and several profound alterations in behavior”.

What about the IC100 (corticosterone; Rimonabant) of the same compound?
The IC100 was 2 mg/kg.

And the “Increase in glucocorticoid secretion: Effect (Rimonabant)” value (corticosterone; mice)?
Its value is “Yes”.

What about the “N fold IC100” value (corticosterone; vs reference ID100 for rimonabant = 10 mg/kg) of the same compound?
Its value is 0.2^#.

And the IC100 ([4]; Rimonabant, male mice)?
The IC100 was 10 mg/kg.

What about the “Inhibition of food-intake and body weight (repeated administration): Effect (Rimonabant)” value ([4]; male mice) of the same compound?
Its value is “Yes”.

What about the “Inhibition of food-intake and body weight (repeated administration): Effect (Rimonabant)” value [4, 9] of the same compound?
The value was “decreased both food intake and body weight”.

And the “N fold IC100” value [4, 10]?
The value was 1.

And the “Food intake in obese mice” value ([4]; vs vehicle, Rimo 10 mg/kg ip, 3pMBP 0.005-15 mg/kg per os)?
Its value is “decreases food intake”.

What about the IC100 (THC dependent mice) of the same compound?
The IC100 was 10 mg/kg.

With COc1ccc(CO[C@H]2CC[C@@]3(C)C(=CC[C@H]4[C@@H]5CC[C@H](C(C)=O)[C@@]5(C)CC[C@@H]43)C2)cc1 [[^3H]-3pMBP] as the compound, how does the “Major metabolites in plasma” value [5] read?
The value was “does not produce any major metabolites in plasma”.

Which results are given for CC(=O)[C@H]1CC[C@H]2[C@@H]3CC=C4C[C@@H](O)CC[C@]4(C)[C@H]3CC[C@]12C [pregnenolone]?
displacement of binding [6]: > 40%; displacement of binding [7]: > 40%; displacement of binding (progesterone receptor): > 80%
